Source: patent US11478471B2, “Methods and compositions for treating diabetes, metabolic syndrome and other conditions” (priority 2005, dated 2022)
≈ marks a conversion by molar mass, not a printed value. Read-outs that look alike come from different tables or passages of the source.

Columns and labels:
[1] = dog, in vivo, po, 40 mg/kg/day
P450 2C6 = P450 2C6 (Rattus norvegicus, UniProt P05178); conditions: Rotstein et al. 1992; read-out: IC50, progesterone 21 hydroxylase (2C6); cited from earlier work
Cryptococcus neoformans = test: Antifungal MIC; type: cell-based
P450 3A = conditions: read-out: IC50, progesterone 6β hydroxylase (3A); Rotstein et al. 1992; cited from earlier work
Candida tropicalis = test: Antifungal MIC; type: cell-based; conditions: read-out: MIC
testosterone levels = test: Testosterone levels in rats after oral dosing; type: in vivo, Sprague Dawley rats; conditions: for Testosterone levels (mean ± SEM): 4 h after gavage
Source text: There was a single control group (dosed with vehicle).
The means of the vehicle treated groups are used as the time zero control point.

[2] = test system: mouse L5178Y lymphoma cells; test: Mouse lymphoma assay, thymidine kinase locus; conditions: with and without S-9, up to toxic doses
[3] = test system: P450 2B1, 2B2, 1A1, 2C11, 3A; conditions: read-out: IC50, progesterone 16α hydroxylase (2B1, 2B2, 1A1, 2C11, 3A); Rotstein et al. 1992; cited from earlier work
[4] = dog, in vivo, 40 mg/kg
Experimental: As a control, a separate set of 2 male and 2 female dogs was treated with vehicle.

[5] = cited from earlier work; for AUC 0-12 / Cmax / T ½: humans
P450 4A = conditions: read-out: IC50, lauric acid hydroxylase (4A); Rotstein et al. 1992; cited from earlier work
Candida parapsilosis = test: Antifungal MIC; type: cell-based; conditions: Lodderomyces parapsilosis, read-out: MIC
[6] = following fifth 200 mg dose of racemic ketoconazole (every twelve hours)
[7] = following first 200 mg dose of racemic ketoconazole
[8] = normal volunteers, 200 mg dose of the racemic mixture

Chain of P450 2C6 (P05178 whole entry): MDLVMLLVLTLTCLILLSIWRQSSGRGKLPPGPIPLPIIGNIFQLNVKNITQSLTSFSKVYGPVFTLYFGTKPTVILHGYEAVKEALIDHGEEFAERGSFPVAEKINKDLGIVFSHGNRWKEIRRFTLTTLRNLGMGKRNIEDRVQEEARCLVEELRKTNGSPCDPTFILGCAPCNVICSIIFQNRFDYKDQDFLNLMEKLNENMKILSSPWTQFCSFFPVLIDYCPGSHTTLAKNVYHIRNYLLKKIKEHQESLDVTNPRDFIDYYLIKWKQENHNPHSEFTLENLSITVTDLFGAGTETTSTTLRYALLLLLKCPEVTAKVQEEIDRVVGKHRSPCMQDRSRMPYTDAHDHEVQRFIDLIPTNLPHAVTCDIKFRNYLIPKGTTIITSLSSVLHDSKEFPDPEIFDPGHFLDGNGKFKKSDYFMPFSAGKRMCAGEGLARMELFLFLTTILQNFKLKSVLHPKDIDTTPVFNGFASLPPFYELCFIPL

For `CC(=O)N1CCN(c2ccc(OC[C@@H]3CO[C@@](Cn4ccnc4)(c4ccc(Cl)cc4Cl)O3)cc2)CC1` [DIO-902, 2S,4R cis-1-acetyl-4-[4-[[2-(2,4-dichlorophenyl)-2-(1H-imidazol-1-ylmethyl)-1,3-dioxolan-4-yl]methoxyl]phenyl]piperazine], the “reduction in total white cell numbers” value [1] is given as 20%, the IC50 (P450 2C6) is given as 9 µM and the MIC (Cryptococcus neoformans; DSM11959, DSM strain 11959, 48 h) is given as 0.03 µg/mL (≈ 0.0565 µM). The MIC (Cryptococcus neoformans; DSM11960, DSM strain 11960, 48 h) was 0.125 µg/mL (≈ 0.235 µM), the IC50 (P450 3A) was 1.3 µM and the MIC (Candida tropicalis; DSM11951, DSM strain 11951, 48 h) was 0.06 µg/mL (≈ 0.113 µM). For the same molecule, the MIC (Candida tropicalis; DSM11952, DSM strain 11952, 48 h) was 2 µg/mL (≈ 3.76 µM), the MIC (Candida tropicalis; DSM11953, DSM strain 11953, 48 h) was 0.06 µg/mL (≈ 0.113 µM) and the “time for testosterone levels to return to normal” value (testosterone levels; 200 mg/kg) was no more than 8 h. The “Testosterone levels (mean ± SEM)” value (testosterone levels; single oral 50 mg/kg) was 2.6 ± 0.7 nmol/L, the “Testosterone levels (mean ± SEM)” value (testosterone levels; single oral 100 mg/kg) was 0.8 ± 0.3 nmol/L and the “Testosterone levels (mean ± SEM), time course” value (testosterone levels; single oral 200 mg/kg, 4 h) was 0.8 ± 0.2 nmol/L. For the same molecule, the “Testosterone levels (mean ± SEM)” value (testosterone levels; single oral 200 mg/kg) was 0.2 ± 0.1 nmol/L, the “Testosterone levels (mean ± SEM), time course” value (testosterone levels; single oral 200 mg/kg, 8 h) was 5.9 ± 0.8 nmol/L and the “Testosterone levels (mean ± SEM), time course” value (testosterone levels; single oral 200 mg/kg, 12 h) was 3.4 ± 0.5 nmol/L. For the same molecule, the “Testosterone levels (mean ± SEM), time course” value (testosterone levels; single oral 200 mg/kg, 16 h) was 3.9 ± 0.6 nmol/L, the “Testosterone levels (mean ± SEM), time course” value (testosterone levels; single oral 200 mg/kg, 20 h) was 5.2 ± 0.6 nmol/L and the “Testosterone levels (mean ± SEM), time course” value (testosterone levels; single oral 200 mg/kg, 24 h) was 4.4 ± 0.7 nmol/L. The “Testosterone levels (mean ± SEM)” value (testosterone levels; single oral 400 mg/kg) was 0.3 ± 0.1 nmol/L, the “Testosterone levels (mean ± SEM)” value (testosterone levels; single oral 600 mg/kg) was 0 ± 0 nmol/L and the “genotoxicity, mouse lymphoma assay” value [2] was “negative”. The IC50 [3] was 84 µM, the clinical signs [4] was “vomiting” and the “AUC 0-12” value [5, 6] was 538 ± 74 µg·min/mL. For the same molecule, the Cmax [5, 6] was 1530 ± 190 ng/mL, the “T ½” value [5, 6] was 3.62 ± 0.5 h and the “AUC 0-12” value [5, 7] was 302 ± 38 µg·min/mL. For the same molecule, the Cmax [5, 7] was 1060 ± 130 ng/mL, the “T ½” value [5, 7] was 2.22 ± 0.233 h and the maximum plasma concentration [5, 8] was “approximately 3.6 μg/mL”. The “time of maximum plasma concentration” value [5, 8] was 2 h, the IC50 (P450 4A) was greater than 100 µM and the MIC (Candida parapsilosis; DSM05784, DSM strain 05784, 48 h) was 0.03 µg/mL (≈ 0.0565 µM). The MIC (Candida parapsilosis; DSM11224, DSM strain 11224, 48 h) was 0.03 µg/mL (≈ 0.0565 µM).
